Article PMC10587169, “Tuning aminopolycarboxylate chelators for efficient complexation of trivalent actinides” (Scientific Reports, 2023)
Where two headings read alike, the source gives them in different places.

Columns and labels:
[1] = Potentiometric titration, acid dissociation constants; format: physicochemical
Procedure: All potentiometric titrations were run using a Mettler Toledo T90 autotitrator equipped with an Orion Ross Semi-micro glass electrode with the junction stabilization solution changed to 5.0 M NaCl to prevent precipitation with perchlorate media. All titrations were performed under a hydrated nitrogen atmosphere. The forward titration measurements (acidic titrand, basic titrant) of H4octapa in nitrate electrolyte medium were performed as described previously due to the limited solubility of this ligand in a 2 M (Na^+/H^+)ClO4 medium. Acid dissociation constants of H4octapa in perchlorate electrolyte medium were also determined by titrating in reverse (basic titrand, acidic titrant) to alleviate the solubility concerns. Titrations of H4pypa-peg were performed in reduced-volume glass titration cups (10 mL nominal) due to the limited supply of this ligand. All potentiometric titrations were run in triplicate. The choice of using p[H^+] was explained in Heathman et al.[15], and the calibration of the p[H^+] scale utilized Gran analysis through titration of a strong acid with the base used in the potentiometric titrations[29]–[31]. Potentiometric titration data was modeled and analyzed using Hyperquad2013 to determine acid dissociation and metal complexation stability constants[32],[33].
Changes in hydrogen ion concentration were monitored using a glass electrode for a solution of H4octapa as either NaOH or HClO4 were titrated into the solutions. […] The experimental potentiometric curve collected for a forward titration of H4octapa in (Na^+/H^+)NO3 is presented in Fig. 3A, alongside the distribution curves for the identified HnL species. Following those studies, the acid/base conditions were reversed and octapa^4− was titrated in 2.0 M (Na^+/H^+)ClO4 using HClO4 (SI Figure S7). The potentiometric curves are well respresented by five proton dissociation equilibria. The calculated equilibrium constants correspond with the protonation reactions for two aliphatic amines, two pyridine nitrogens, and one carboxylate group with the protonation sequence described by Eq. (2). The acid dissociation constants (pKa = − log10Ka) for H4octapa are reported in Table 1 alongside previously reported values in the literature.
The experimental potentiometric titration curve and the distribution curves for the associated HnL species for H4pypa-peg are presented in Fig. 3B. […] For comparison, the protonation equilibria of H4edta were also studied in 2.0 M (Na^+/H^+)ClO4. The pKa values for H4edta are listed in Table 2 and collected potentiometric titration curves (forward and reverse) are presented in SI Figure S8. For H4pypa-peg coordination pocket the protonation of H9L^5+, H7L^3+, and H6L^2+ cannot be characterized using a glass electrode. The H6L^2+ species likely represents a protonated carboxylate group, while H5L^+ and H4L may describe the pyridinecarboxylate nitrogens. The equilibrium involving H3L^− likely describes the dissociation of the protonated pyridine nitrogen, while the two most basic species in this ligand (HL^3− and H2L^2−) are likely the bridging amines in the H4pypa-peg backbone. Equation (3) describes the protonation sequence for H4pypa-peg.3 H10-aL^+6-a⇆H9-aL^+5-a+H^+Ka=H^+·H9-aL^+5-a/H10-aL^+6-aa=1…9

[2] = Spectrophotometric titration; format: binding
Text: Changes in the optical absorption characteristics of Nd^3+ were monitored using a Cary 6000i UV/Vis–NIR Spectrometer (Agilent) using 1 cm semimicro quartz cuvettes (Starna) in double-beam mode, where the ^4I9/2 → ^4G5/2, ^2G7/2 transitions[34] were monitored between 560 and 605 nm with a 0.075 nm interval and 1.0 nm spectral bandwidth. Changes in the optical absorption characteristics of ^243Am^3+ and ^248Cm^3+ were monitored using a Flame-S-VIS–NIR-ES spectrometer coupled to a DH-2000-BAL dual-mode light source (Ocean Optics) with a single 1 cm semimicro quartz cuvette (Starna). The light source and spectrometer were optically coupled to the CUV sample (Ocean Optics) holder using 2 m fiberoptics (200 μm) and the parameters for acquisition were 0.369 nm interval and 1000 scans averaged with an integration time/scan 1.08 ms (total acquisition time ~ 1 s). The complexation of Am^3+ with the ligands was monitored in the 495–525 nm spectral region, looking at the ^7F0′ → ^5L6′ transition[23],[35]. For Cm^3+, ligand complexation was monitored in the 365–410 nm spectral region, looking at the ^8S7/2 → ^2Ji (i = {15}, {13,9}, {11,17}) manifold transitions[24],[25],[36]. Changes in aqueous p[H^+] were monitored throughout each titration step using a Gran-calibrated Orion Ross Semi-micro glass electrode. Baseline correction was applied to all datasets and was typically a simple linear subtraction. However, in the case of the ^248Cm/H4pypa-peg spectra, the tail end of the ligand absorption overlapped the hypersensitive Cm peaks. In this case the background correction was applied using a 5th-order empirical polynomial. Finally, the spectroscopic data was analyzed using the HypSpec software package[33],[37]. Full details of the titrand and titrant solutions for each titration are included in the Supplemental Information.
To further validate the competitive solvent extraction methodology the complexation of Am^3+ with H4octapa and Cm^3+ with H4pypa-peg was studied spectrophotometrically. These titrations monitored the ligand-induced changes on the optical absorption spectra of free Am^3+ at λmax = 503.0 nm, (Fig. 8A) and Cm^3+ at λmax = 375.0, 380.6, 396.5 nm, (Fig. 8C). The presence of both ligands induced new red-shifted absorption signatures in each monitored titration. […] Excellent agreement between the solvent extraction and spectrophotometry was attained for the β101 values for the formation of [Am(octapa)]^− albeit the uncertainty associated with a constant measured using competitive liquid–liquid distribution is rather large and points out the shortcomings of this method. A variance between two analytical methods is larger for [Cm(pypa-peg)]^− possibly due to free ligand absorption interferences.
2. Spectrophotometric titration parameters […]
H4octapa, at p[H+] ≈ 5.0 – 6.0. […]
Am3+: The titrand solution consisting of 0.806 mL of 0.791 mM Am(ClO4)3 at p[H+] = 1.41 was
blended with 0.787 mL of titrant solution containing 0.801 mM Am3+ and 15.09 mM
H4pypa-peg at p[H+] ≈ 5 – 6. […]

[3] = aqueous 2.0 M (Na+/H+)ClO4 electrolyte solution, I = 2.0 M (Na+/H+)ClO4 at 20.0 °C, read-out: pKa H2L species
[4] = aqueous 2.0 M (Na+/H+)ClO4 electrolyte solution, I = 2.0 M (Na+/H+)ClO4 at 20.0 °C, read-out: pKa H3L species
[5] = aqueous 2.0 M (Na+/H+)ClO4 electrolyte solution, I = 2.0 M (Na+/H+)ClO4 at 20.0 °C, read-out: pKa H4L species
[6] = aqueous 2.0 M (Na+/H+)ClO4 electrolyte solution, I = 2.0 M (Na+/H+)ClO4 at 20.0 °C, read-out: pKa H5L species
[7] = aqueous 2.0 M (Na+/H+)ClO4 electrolyte solution, I = 2.0 M (Na+/H+)ClO4 at 20.0 °C, read-out: pKa HL species
[8] = aqueous 2.0 M (Na+/H+)ClO4 electrolyte solution, I = 2.0 M (Na+/H+)ClO4 at 20.0 °C, read-out: pKa H6L species
[9] = I = 2.0 M (Na+/H+)ClO4 at 20.0 °C (spectrophotometric titration)

| SMILES | pKa [1, 3] | pKa [1, 4] | pKa [1, 5] | pKa [1, 6] | pKa [1, 7] | pKa [1, 8] | logβ101 (ML), Am3+ [2, 9] | logβ111 (MHL), Am3+ [2, 9] | also measured |
| --- | --- | --- | --- | --- | --- | --- | --- | --- | --- |
| O=C(O)CN(CCN(CC(=O)O)Cc1cccc(C(=O)O)n1)Cc1cccc(C(=O)O)n1 [H4octapa, 6,6′-((ethane-1,2-diylbis–((carboxymethyl)azanediyl))bis–(methylene))dipicolinic acid] | 5.57 | 3.82 | 3.18 | 1.63 | 8.41 |  |  |  | pKa ([1]; aqueous 2.0 M (Na+/H+)NO3 electrolyte solution, I = 2.0 M (Na+/H+)NO3 at 25.0 °C, read-out: pKa H2L2-): 5.27; pKa ([1]; aqueous 2.0 M (Na+/H+)NO3 electrolyte solution, I = 2.0 M (Na+/H+)NO3 at 25.0 °C, read-out: pKa H3L-): 3.63; pKa ([1]; aqueous 2.0 M (Na+/H+)NO3 electrolyte solution, I = 2.0 M (Na+/H+)NO3 at 25.0 °C, read-out: pKa H4L(aq)): 3; pKa ([1]; aqueous 2.0 M (Na+/H+)NO3 electrolyte solution, I = 2.0 M (Na+/H+)NO3 at 25.0 °C, read-out: pKa H5L+): 1.63; pKa ([1]; aqueous 2.0 M (Na+/H+)NO3 electrolyte solution, I = 2.0 M (Na+/H+)NO3 at 25.0 °C, read-out: pKa HL3-): 8.16; logβ101 (ML), Am3+ ([2]; spectrophotometrically measured, I = 2.0 M (Na+/H+)NO3, T = 25 ± 1 °C, ±3σ): 19.28 (1) |
| O=C(O)CN(Cc1cc(-c2cn(CCOCCOCCO)nn2)cc(CN(CC(=O)O)Cc2cccc(C(=O)O)n2)n1)Cc1cccc(C(=O)O)n1 [H4pypa-peg, 6,6'-((((4-(1-(2-(2-(2-hydroxyethoxy)ethoxy)ethyl)-1H-1,2,3-triazol-4-yl)pyridine-2,6-diyl)bis–(methylene))bis–((carboxymethyl)azanediyl))bis–(methylene)) dipicolinic acid] |  |  |  |  |  |  |  |  | pKa ([1]; aqueous 2.0 M (Na+/H+)ClO4 electrolyte solution, I = 2.0 M (Na+/H+)ClO4 (Table 2), read-out: pKa H2L2-): 6.45; pKa ([1]; aqueous 2.0 M (Na+/H+)ClO4 electrolyte solution, I = 2.0 M (Na+/H+)ClO4 (Table 2), read-out: pKa H3L-): 3.92; pKa ([1]; aqueous 2.0 M (Na+/H+)ClO4 electrolyte solution, I = 2.0 M (Na+/H+)ClO4 (Table 2), read-out: pKa H4L(aq)): 3.37; pKa ([1]; aqueous 2.0 M (Na+/H+)ClO4 electrolyte solution, I = 2.0 M (Na+/H+)ClO4 (Table 2), read-out: pKa H5L+): 2.45; pKa ([1]; aqueous 2.0 M (Na+/H+)ClO4 electrolyte solution, I = 2.0 M (Na+/H+)ClO4 (Table 2), read-out: pKa H6L2+): 1.43; pKa ([1]; aqueous 2.0 M (Na+/H+)ClO4 electrolyte solution, I = 2.0 M (Na+/H+)ClO4 (Table 2), read-out: pKa HL3-): 7.44 |
| O=C(O)CN(CCN(CC(=O)O)CC(=O)O)CCN(CC(=O)O)CC(=O)O [H5dtpa, diethylenetriamine-N,N,N',N'',N''-pentaacetic acid] | 8.31 | 5.57 | 4.38 | 2.53 | 9.5 | 2.41 | 21.45(1) | 22.62(2) |  |
| O=C(O)CN(CCN(CCN(CC(=O)O)CC(=O)O)CC(=O)O)CCN(CC(=O)O)CC(=O)O [H6ttha, triethylenetetraamine-N,N,N',N'',N''',N'''-hexaacetic acid] | 8.67 | 6.27 | 4.12 | 2.7 | 9.48 | 2.19 | 23.25(3) | 27.02(3) | pKa ([1]; aqueous 2.0 M (Na+/H+)ClO4 electrolyte solution, I = 2.0 M (Na+/H+)ClO4 at 20.0 °C, read-out: pKa H7L species): 1.86; logβ121 (MH2L), Am3+ [2, 9]: 28.84(2) |
